Measurements: patent US11795177B2, “Substituted quinoline analogs as aldehyde dehydrogenase 1A1 (ALDH1A1) inhibitors” (THE UNITED STATES OF AMERICA, AS REPRESENTED BY THE …, priority 2017, dated 2023)
Structures can show the parent of a compound that is named as a salt.

Columns and labels:
[1] = biological target: T1, ALDH1A1 enzyme (Homo sapiens, UniProt P00352); assay: ALDH1A1 enzymatic assay (in vitro); assay type: biochemical; settings: ALDH1A1 enzyme 20 nM, NAD+ 1 mM, propionaldehyde 80 μM; read-out: ALDH1A1 IC50
T1 sequence (P00352 1-501): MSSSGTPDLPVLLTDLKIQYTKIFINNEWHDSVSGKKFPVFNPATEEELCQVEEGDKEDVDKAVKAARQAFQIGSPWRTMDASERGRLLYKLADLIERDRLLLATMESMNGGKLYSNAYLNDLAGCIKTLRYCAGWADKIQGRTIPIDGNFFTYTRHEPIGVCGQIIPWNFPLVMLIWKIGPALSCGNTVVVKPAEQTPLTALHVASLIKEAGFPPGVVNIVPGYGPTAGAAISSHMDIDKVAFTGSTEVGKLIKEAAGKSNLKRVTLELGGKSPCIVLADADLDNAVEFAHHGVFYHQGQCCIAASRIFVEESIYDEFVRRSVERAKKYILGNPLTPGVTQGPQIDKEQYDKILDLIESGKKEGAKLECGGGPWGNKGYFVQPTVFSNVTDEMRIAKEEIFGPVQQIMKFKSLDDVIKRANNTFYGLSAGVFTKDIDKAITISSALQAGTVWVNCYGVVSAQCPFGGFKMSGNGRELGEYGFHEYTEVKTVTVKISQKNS
Procedure, shortened: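 ALDH1A1 (20 nM final) in 100 mM HEPES pH 7.5, 0.01% Tween 20 was preincubated 15 min at RT with compound (968 pM–57.2 μM final), then started with 1 mM NAD+ and 80 μM propionaldehyde. NADH fluorescence (ex 340/em 450 nm) followed kinetically for 10 min; change normalized to no-inhibitor and no-enzyme controls for percent inhibition and curve fitting.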

[2] = system: MIA PaCa-2 cells; assay: MIA PaCa2 cell-based assay (1,536-well high-content imaging ALDEFLUOR assay); set-up: species or system human; settings: Homo sapiens, 0.5 h, ALDEFLUOR BAAA substrate 500 nM, 30 minutes
Procedure, shortened: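 High-content ALDEFLUOR imaging readout: BAA-retaining cells in FITC channel scored against Hoechst-counted nuclei. Before imaging, MIA PaCa-2 cells seeded at 1,000 per well received final 500 nM BAAA and 0.5 nM Hoechst with compounds in 16-point series (1.4 nM to 47.8 μM), 30 min, 37° C.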

SMILES	IC50 [1] [µM]	IC50 [2] [µM]
O=C(c1cnc2ccc(F)cc2c1N1CCC2(CC1)COC2)N1CCN(C(=O)C2CC2)CC1 [Example 68, (4-(cyclopropanecarbonyl)piperazin-1-yl)(6-fluoro-4-(2-oxa-7-azaspiro[3.5]nonan-7-yl)quinolin-3-yl)methanone]	1 to 10	> 10
N#CC1(O)CCN(C(=O)c2cnc3ccc(F)cc3c2-c2ccc(C3(C#N)CC3)cc2)CC1 [Cpd. 340, 1-(4-(4-(1-cyanocyclopropyl)phenyl)-6-fluoroquinoline-3-carbonyl)-4-hydroxypiperidine-4-carbonitrile]	< 0.5	1 to 10
COc1cc2ncc(C(=O)N3CCN(S(=O)(=O)C4CC4)CC3)c(N3CCC(C)(C#N)CC3)c2cc1OC [Example 114, 1-(3-(4-(cyclopropylsulfonyl)piperazine-1-carbonyl)-6,7-dimethoxyquinolin-4-yl)-4-methylpiperidine-4-carbonitrile]	< 0.5	1 to 10
O=C(c1cnc2ccc(F)cc2c1N1CCC2(CCOC2=O)CC1)N1CCN(C(=O)C2CC2)CC1 [Example 248, 8-(3-(4-(cyclopropanecarbonyl)piperazine-1-carbonyl)-6-fluoroquinolin-4-yl)-2-oxa-8-azaspiro[4.5]decan-1-one]	< 0.5	1 to 10
CCNC(=O)N1CCN(C(=O)c2cnc3ccccc3c2N2CCC(C)(C#N)CC2)CC1 [Example 99, 4-(4-(4-cyano-4-methylpiperidin-1-yl)quinoline-3-carbonyl)-N-ethylpiperazine-1-carboxamide]	1 to 10	> 10
O=C(c1cnc2ccc(F)cc2c1N1CCC2(CC1)OCCO2)N1CCC(F)(F)CC1 [Example 50, (4,4-difluoropiperidin-1-yl)(6-fluoro-4-(1,4-dioxa-8-azaspiro[4.5]decan-8-yl)quinolin-3-yl)methanone]	< 0.5	> 10
CC1(C#N)CCN(c2c(C(=O)N3CCN(S(C)(=O)=O)C4(CC4)C3)cnc3ccc(F)cc23)CC1 [Example 230, 1-(6-fluoro-3-(4-(methylsulfonyl)-4,7-diazaspiro[2.5]octane-7-carbonyl)quinolin-4-yl)-4-methylpiperidine-4-carbonitrile]	< 0.5	1 to 10
CCN(CC)C(=O)N1CCN(C(=O)c2cnc3c(F)cc(F)cc3c2N2CCC3(CC2)OCCO3)CC1 [Example 159, 4-(6,8-difluoro-4-(1,4-dioxa-8-azaspiro[4.5]decan-8-yl)quinoline-3-carbonyl)-N,N-diethylpiperazine-1-carboxamide]	< 0.5	1 to 10
CC1(C#N)CCN(c2c(C(=O)N3CCN(S(C)(=O)=O)CC3)cnc3cc(F)c(F)cc23)CC1 [Example 136, 1-(6,7-difluoro-3-(4-(methylsulfonyl)piperazine-1-carbonyl)quinolin-4-yl)-4-methylpiperidine-4-carbonitrile]	< 0.5	1 to 10
COc1ccc2c(N3CCC4(CC3)OCCO4)c(C(=O)N3CCN(S(C)(=O)=O)CC3)cnc2c1 [Example 129, (7-methoxy-4-(1,4-dioxa-8-azaspiro[4.5]decan-8-yl)quinolin-3-yl)(4-(methylsulfonyl)piperazin-1-yl)methanone]	< 0.5	1 to 10
N#CC1(c2ccc(-c3c(C(=O)N4CCC(O)CC4)cnc4ccc(F)cc34)cc2)CC1 [Cpd. 337, 1-(4-(6-fluoro-3-(4-hydroxypiperidine-1-carbonyl)quinolin-4-yl)phenyl)cyclopropane-1-carbonitrile]	< 0.5	1 to 10
COc1ccc2c(N3CCC(C)(C#N)CC3)c(C(=O)N3CCN(S(=O)(=O)C4CC4)CC3)cnc2c1 [Example 106, 1-(3-(4-(cyclopropylsulfonyl)piperazine-1-carbonyl)-7-methoxyquinolin-4-yl)-4-methylpiperidine-4-carbonitrile]	< 0.5	1 to 10
CCOC(=O)N1CCN(C(=O)c2cnc3ccc(F)cc3c2N2CCC(C)(C#N)CC2)CC1 [Example 88, Ethyl 4-(4-(4-cyano-4-methylpiperidin-1-yl)-6-fluoroquinoline-3-carbonyl)piperazine-1-carboxylate]	< 0.5	> 10
CC1(C#N)CCN(c2c(C(=O)N3CCN(C(=O)C4CC4)CC3)cnc3ccc(Cl)cc23)CC1 [Example 117, 1-(6-chloro-3-(4-(cyclopropanecarbonyl)piperazine-1-carbonyl)quinolin-4-yl)-4-methylpiperidine-4-carbonitrile]	< 0.5	1 to 10
O=C(C1CC1)C1CCN(C(=O)c2cnc3cc(F)c(F)cc3c2N2CCC3(CC2)OCCO3)CC1 [Example 193, (4-(cyclopropanecarbonyl)piperidin-1-yl)(6,7-difluoro-4-(1,4-dioxa-8-azaspiro[4.5]decan-8-yl)quinolin-3-yl)methanone]	< 0.5	1 to 10
CC1(C#N)CCN(c2c(C(=O)N3CCN(S(C)(=O)=O)CC3)cnc3ccccc23)CC1 [Example 97, 4-methyl-1-(3-(4-(methylsulfonyl)piperazine-1-carbonyl)quinolin-4-yl)piperidine-4-carbonitrile]	< 0.5	> 10
CC1(C#N)CCN(c2c(C(=O)N3CCN(S(=O)(=O)C4CC4)CC3)cnc3ccc(Cl)cc23)CC1 [Example 120, 1-(6-chloro-3-(4-(cyclopropylsulfonyl)piperazine-1-carbonyl)quinolin-4-yl)-4-methylpiperidine-4-carbonitrile]	< 0.5	1 to 10
COc1ccc2ncc(C(=O)N3CCN(C(=O)C4CC4)CC3)c(N3CCC4(CC3)CC4)c2c1 [Example 46, (4-(cyclopropanecarbonyl)piperazin-1-yl)(6-methoxy-4-(6-azaspiro[2.5]octan-6-yl)quinolin-3-yl)methanone]	< 0.5	1 to 10
Cc1ccc(C2(C#N)CCN(c3c(C(=O)N4CCN(C(=O)C5CC5)CC4)cnc4ccc(F)cc34)CC2)c(F)c1 [Example 290, 1-(3-(4-(cyclopropanecarbonyl)piperazine-1-carbonyl)-6-fluoroquinolin-4-yl)-4-(2-fluoro-4-methylphenyl)piperidine-4-carbonitrile]	< 0.5	< 0.5
CN(C)C(=O)N1CCN(C(=O)c2cnc3c(F)cc(F)cc3c2N2CCC3(CC2)OCCO3)CC1 [Example 180, 4-(6,8-difluoro-4-(1,4-dioxa-8-azaspiro[4.5]decan-8-yl)quinoline-3-carbonyl)-N,N-dimethylpiperazine-1-carboxamide]	< 0.5	1 to 10
CC1(C#N)CCN(c2c(C(=O)N3CCN(C(=O)C4CC4)CC3)cnc3c(F)cc(F)cc23)CC1 [Example 125, 1-(3-(4-(cyclopropanecarbonyl)piperazine-1-carbonyl)-6,8-difluoroquinolin-4-yl)-4-methylpiperidine-4-carbonitrile]	< 0.5	1 to 10
O=C(c1cnc2ccc(F)cc2c1N1CCC2(CCCC2=O)CC1)N1CCN(C(=O)C2CC2)CC1 [Example 250, 8-(3-(4-(cyclopropanecarbonyl)piperazine-1-carbonyl)-6-fluoroquinolin-4-yl)-8-azaspiro[4.5]decan-1-one]	< 0.5	1 to 10
CCS(=O)(=O)N1CCN(C(=O)c2cnc3c(cnn3C)c2N2CCC(C)(C#N)CC2)CC1 [Example 207, 1-(5-(4-(ethylsulfonyl)piperazine-1-carbonyl)-1-methyl-1H-pyrazolo[3,4-b]pyridin-4-yl)-4-methylpiperidine-4-carbonitrile]	< 0.5	1 to 10
COc1ccc2ncc(C(=O)N3CCC(N4CCCC4)CC3)c(N3CCC4(CC3)OCCO4)c2c1 [Example 11, (6-methoxy-4-(1,4-dioxa-8-azaspiro[4.5]decan-8-yl)quinolin-3-yl)(4-(pyrrolidin-1-yl)piperidin-1-yl)methanone, TFA]	> 10	> 10
O=C(c1cnc2ccc(F)cc2c1N1CCC2(CC1)OCCO2)N1CCN(S(=O)(=O)N2CCCC2)CC1 [Example 153, (6-fluoro-4-(1,4-dioxa-8-azaspiro[4.5]decan-8-yl)quinolin-3-yl)(4-(pyrrolidin-1-ylsulfonyl)piperazin-1-yl)methanone]	< 0.5	> 10
CC(C)C(=O)N1CCN(C(=O)c2cnc3ccc(F)cc3c2N2CCC3(CC2)OCCO3)CC1 [Example 49, 1-(4-(6-fluoro-4-(1,4-dioxa-8-azaspiro[4.5]decan-8-yl)quinoline-3-carbonyl)piperazin-1-yl)-2-methylpropan-1-one]	< 0.5	> 10
